Experiment [1] deals with human penile resistance arteries (HPRA). The experiment in a line: Vascular reactivity of resistance penile arteries (myograph, isometric tension). On the procedure: Penile small arteries, helicine arteries (lumen diameter 150-400 μm), which are the terminal branches of deep penile arteries, were dissected by carefully removing the adhering trabecular tissue, and arterial ring segments (of 2 mm length) were subsequently mounted on two 40 μm wires on microvascular double Halpern-Mulvany myographs (J.P. Trading, Aarhus, Denmark) for isometric tension recordings. The vascular segments were allowed to equilibrate for 30 min in physiological salt solution (PSS) of the following composition (each given in mM): 119 NaCl, 4.6 KCl; 1.5 CaCl2, 1.2 MgCl2, 24.9 NaHCO3, 11 Glucose, 1,2 KH2PO4, 0.027 EDTA in water at 37° C., continuously bubbled with a 95% O2/5% CO2 mixture to maintain a pH of 7.4. Passive tension and internal circumference of the vascular segments when relaxed in situ under a transmural pressure of […] (L100) were determined. The vascular segments were then set to an internal circumference eqivalent to 90% of L100, at which the force development was dose to maximal as described in Mulvany M J, Halpem W., “Contractile properties of small resistance arteries in spontaneously hypertensive and normotensive rats”, Circ. Res., 41, 19-26, 1977. The respective literature description is incorporated by reference and is part of the disclosure. The preparations were then exposed to 125 mM K^+ (KPSS, equimolar substitution of NaCl for KCl in PSS) and the contractile response was measured. The arteries were contracted with 1 μm norepinephrine (approximately 80% of KPSS induced contraction) and relaxation responses were evaluated by cumulative additions of compounds to the chambers.
Relaxation responses are expressed as percentage of total relaxation (loss in tone) induced by the addition of 0.1 mM papaverine HCl to the chambers at the end of the experiment. All data are expressed as mean±standard error. Complete concentration-response or frequency-response curves were obtained and compared by a two-factor analysis of variance (ANOVA) statistical test using StatView sotfware for Apple computers. Erectile responses were determined by measuring the area under the curve (AUC) of the intracavemosal pressure increases to rat cavernosal nerve stimulation normalized by mean arterial pressure values. The complete frequency-response curves were compared by a two-factor ANOVA test.

Experiment [2] deals with erectile responses (intracavernosal pressure) to cavernosal nerve stimulation. In words: Erectile responses to cavernosal nerve stimulation in anesthetized rats. It counts as in vivo, rat. The settings on record: intravenous 10 mg/kg, stimulation 60 min after administration. On the procedure:
Male Sprague-Dawley rats were anesthetized with ketamine (60 mg/kg). The surgical procedure consisted of dissection and isolation of the right cavernous nerve through an abdominal midline incision and exposure of penile crura through a transverse perineal incision. Intracavemosal pressure (ICP) measurements were accomplished by insertion into the right crus of a 23-gauge needle connected to a disposable pressure transducer (Abbott, Sligo, Ireland) and a data acquisition system (ADInstruments, Castle Hill, Australia). Left carotid artery and right external jugular vein were catheterized for constant blood pressure measurement and saline or drug infusion, respectively. Electrical stimulation was applied by a delicate platinum bipolar hook electrode connected to a stimulator and current amplifier (Cibertec, Madrid, Spain). Parameters of electrical stimulation consisted of pulses with a duration of 1 ms and 1.5 mA of current intensity for 1 minute. […]
Relaxation responses are expressed as percentage of total relaxation (loss in tone) induced by the addition of 0.1 mM papaverine HCl to the chambers at the end of the experiment. All data are expressed as mean±standard error. […] Erectile responses were determined by measuring the area under the curve (AUC) of the intracavemosal pressure increases to rat cavernosal nerve stimulation normalized by mean arterial pressure values. […]

Here are results for 1 compound from patent US20070010581A1, “Use of 2,5-dihydroxybenzenesulfonic compounds for the treatment of disorders based on an impairment of no production and/or of regulation of edhf function” (priority 2002, published 2007).

With `O=S(=O)(O)c1cc(O)ccc1O` [calcium dobesilate, calcium dihydroxy-2,5 benzenesulfonate], the “effect on ACh-induced relaxation of HPRA” value in experiment [1] (calcium dobesilate 10 μM) is on record as “markedly potentiated”. For the same compound, the “potentiation of ACh-induced relaxation of HPRA under combined inhibition of NOS and COX” value in experiment [1] (calcium dobesilate 10 μM, combined inhibition of NOS and COX) was “not significantly affected”. In addition, the “potentiation of ACh-induced relaxation of HPRA at high potassium concentration” value in experiment [1] (calcium dobesilate 10 μM, high potassium concentration (35 mM)) is “abolished”. The “potentiating effects on ACh-induced relaxation of HPRA with APA and CTX” value in experiment [1] (combination of APA (100 nM) and CTX (100 nM)) is “abolished the potentiating effects”. Moreover, the “potentiating effects on ACh-induced relaxation of HPRA resistant to NOS and COX inhibition, with miconazole” value in experiment [1] (miconazole (0.3 mM)) was “significantly reduced the potentiating effects”. Besides, in experiment [2], the “erectile responses to cavernosal nerve stimulation” value is given as “significantly enhanced the erectile responses”.
